Measured values from the NIST ThermoML archive (doi:10.1016/j.jct.2016.03.026).
± gives the expanded uncertainty stated by the source.

Experiment: xn = mol fraction of the nth substance listed
Conditions: 273.15 K, Fluid (supercritical or subcritical phases), x1 = 0.97; for mass density: Vibrating tube method; for speed of sound: Frequency=5 MHz, Pulse-echo method

O=C=O [carbon dioxide] + CO
Conditions	mass density [kg/m3]	speed of sound [m/s]
14050 kPa	992.7 ± 0.8	–
14075 kPa	992.85 ± 0.8	–
14100 kPa	992.93 ± 0.8	–
14125 kPa	993.06 ± 0.8	–
14150 kPa	993.17 ± 0.8	–
14175 kPa	993.26 ± 0.8	–
14200 kPa	993.38 ± 0.8	–
14225 kPa	993.5 ± 0.8	–
14250 kPa	993.58 ± 0.8	–
14275 kPa	993.7 ± 0.8	–
14300 kPa	993.82 ± 0.8	–
14325 kPa	993.9 ± 0.8	–
14350 kPa	994 ± 0.8	–
14375 kPa	994.12 ± 0.8	–
14400 kPa	994.23 ± 0.8	–
14425 kPa	994.35 ± 0.8	–
14450 kPa	994.42 ± 0.8	–
14475 kPa	994.54 ± 0.8	–
14500 kPa	994.65 ± 0.8	–
14525 kPa	994.75 ± 0.8	–
14550 kPa	994.85 ± 0.8	–
14575 kPa	994.96 ± 0.8	–
14600 kPa	995.07 ± 0.8	–
14625 kPa	995.18 ± 0.8	–
14650 kPa	995.29 ± 0.8	–
14675 kPa	995.37 ± 0.8	–
14700 kPa	995.5 ± 0.8	–
14725 kPa	995.62 ± 0.8	–
14750 kPa	995.7 ± 0.8	–
14775 kPa	995.81 ± 0.8	–
14800 kPa	995.94 ± 0.8	–
14825 kPa	996.02 ± 0.8	–
14850 kPa	996.12 ± 0.8	–
14875 kPa	996.27 ± 0.8	–
14900 kPa	996.34 ± 0.8	688.9 ± 1
14925 kPa	996.43 ± 0.8	–
14950 kPa	996.51 ± 0.8	–
14975 kPa	996.65 ± 0.8	–
15000 kPa	996.75 ± 0.8	–
15025 kPa	996.84 ± 0.8	–
15050 kPa	996.94 ± 0.8	–
15075 kPa	997.08 ± 0.8	–
15100 kPa	997.16 ± 0.8	–
15125 kPa	997.24 ± 0.8	–
15150 kPa	997.37 ± 0.8	–
15175 kPa	997.49 ± 0.8	–
15200 kPa	997.57 ± 0.8	–
15225 kPa	997.66 ± 0.8	–
15250 kPa	997.8 ± 0.8	–
15275 kPa	997.89 ± 0.8	–
15300 kPa	997.98 ± 0.8	–
15325 kPa	998.14 ± 0.8	–
15350 kPa	998.19 ± 0.8	–
15375 kPa	998.3 ± 0.8	–
15400 kPa	998.38 ± 0.8	–
15425 kPa	998.5 ± 0.8	–
15450 kPa	998.63 ± 0.8	–
15475 kPa	998.71 ± 0.8	–
15500 kPa	998.79 ± 0.8	–
15525 kPa	998.89 ± 0.8	–
15550 kPa	999.03 ± 0.8	–
15575 kPa	999.11 ± 0.8	–
15600 kPa	999.22 ± 0.8	–
15625 kPa	999.34 ± 0.8	–
15650 kPa	999.41 ± 0.8	–
15675 kPa	999.52 ± 0.8	–
15700 kPa	999.63 ± 0.8	–
15725 kPa	999.76 ± 0.8	–
15750 kPa	999.85 ± 0.8	–
15775 kPa	999.93 ± 0.8	–
15800 kPa	1000.03 ± 0.8	–
15825 kPa	1000.09 ± 0.8	–
15850 kPa	1000.25 ± 0.8	–
15875 kPa	1000.33 ± 0.8	–
15900 kPa	1000.44 ± 0.8	–
15925 kPa	1000.5 ± 0.8	–
15950 kPa	1000.59 ± 0.8	–
15975 kPa	1000.74 ± 0.8	–
16000 kPa	1000.82 ± 0.8	–
16025 kPa	1000.92 ± 0.8	–
16050 kPa	1001.03 ± 0.8	–
16075 kPa	1001.14 ± 0.8	–
16100 kPa	1001.23 ± 0.8	–
16125 kPa	1001.34 ± 0.8	–
16150 kPa	1001.44 ± 0.8	–
16175 kPa	1001.55 ± 0.8	–
16200 kPa	1001.64 ± 0.8	–
16225 kPa	1001.73 ± 0.8	–
16250 kPa	1001.84 ± 0.8	–
16275 kPa	1001.95 ± 0.8	–
16300 kPa	1002.05 ± 0.8	–
16325 kPa	1002.16 ± 0.8	–
16350 kPa	1002.26 ± 0.8	–
16375 kPa	1002.35 ± 0.8	–
16400 kPa	1002.44 ± 0.8	–
16425 kPa	1002.55 ± 0.8	–
16450 kPa	1002.64 ± 0.8	–
16475 kPa	1002.73 ± 0.8	–
16500 kPa	1002.82 ± 0.8	–
16525 kPa	1002.92 ± 0.8	–
16550 kPa	1003.07 ± 0.8	–
16575 kPa	1003.15 ± 0.8	–
16600 kPa	1003.23 ± 0.8	–
16625 kPa	1003.31 ± 0.8	–
16650 kPa	1003.43 ± 0.8	–
16675 kPa	1003.55 ± 0.8	–
16700 kPa	1003.63 ± 0.8	–
16725 kPa	1003.75 ± 0.8	–
16750 kPa	1003.86 ± 0.8	–
16775 kPa	1003.93 ± 0.8	–
16800 kPa	1004.01 ± 0.8	–
16825 kPa	1004.09 ± 0.8	–
16850 kPa	1004.25 ± 0.8	–
16875 kPa	1004.31 ± 0.8	–
16900 kPa	1004.4 ± 0.8	–
16925 kPa	1004.53 ± 0.8	–
16950 kPa	1004.6 ± 0.8	–
16975 kPa	1004.73 ± 0.8	–
17000 kPa	1004.82 ± 0.8	–
17025 kPa	1004.89 ± 0.8	–
17050 kPa	1005.04 ± 0.8	–
17075 kPa	1005.11 ± 0.8	–
17100 kPa	1005.21 ± 0.8	–
17125 kPa	1005.3 ± 0.8	–
17150 kPa	1005.42 ± 0.8	–
17175 kPa	1005.49 ± 0.8	–
17200 kPa	1005.63 ± 0.8	–
17225 kPa	1005.7 ± 0.8	–
17250 kPa	1005.78 ± 0.8	–
17275 kPa	1005.9 ± 0.8	–
17300 kPa	1006.03 ± 0.8	–
17325 kPa	1006.1 ± 0.8	–
17350 kPa	1006.19 ± 0.8	–
17375 kPa	1006.3 ± 0.8	–
17400 kPa	1006.36 ± 0.8	–
17425 kPa	1006.5 ± 0.8	–
17450 kPa	1006.55 ± 0.8	–
17475 kPa	1006.68 ± 0.8	–
17500 kPa	1006.76 ± 0.8	–
17525 kPa	1006.86 ± 0.8	–
17550 kPa	1006.92 ± 0.8	–
17575 kPa	1007.06 ± 0.8	–
17600 kPa	1007.11 ± 0.8	–
17625 kPa	1007.24 ± 0.8	–
17650 kPa	1007.37 ± 0.8	–
17675 kPa	1007.42 ± 0.8	–
17700 kPa	1007.56 ± 0.8	–
17725 kPa	1007.61 ± 0.8	–
17750 kPa	1007.74 ± 0.8	–
17775 kPa	1007.82 ± 0.8	–
17800 kPa	1007.92 ± 0.8	–
17825 kPa	1008.05 ± 0.8	–
17850 kPa	1008.1 ± 0.8	–
17875 kPa	1008.22 ± 0.8	–
17900 kPa	1008.28 ± 0.8	–
17925 kPa	1008.41 ± 0.8	–
17950 kPa	1008.47 ± 0.8	–
17975 kPa	1008.58 ± 0.8	–
18000 kPa	1008.63 ± 0.8	–
18025 kPa	1008.76 ± 0.8	–
18050 kPa	1008.81 ± 0.8	–
18075 kPa	1008.93 ± 0.8	–
18100 kPa	1009.05 ± 0.8	–
18125 kPa	1009.17 ± 0.8	–
18150 kPa	1009.21 ± 0.8	–
18175 kPa	1009.33 ± 0.8	–
18200 kPa	1009.44 ± 0.8	–
18225 kPa	1009.49 ± 0.8	–
18250 kPa	1009.61 ± 0.8	–
18275 kPa	1009.68 ± 0.8	–
18300 kPa	1009.76 ± 0.8	–
18325 kPa	1009.88 ± 0.8	–
18350 kPa	1009.93 ± 0.8	–
18375 kPa	1010.03 ± 0.8	–
18400 kPa	1010.15 ± 0.8	–
18425 kPa	1010.26 ± 0.8	–
18450 kPa	1010.33 ± 0.8	–
18475 kPa	1010.41 ± 0.8	–
18500 kPa	1010.52 ± 0.8	–
18525 kPa	1010.58 ± 0.8	–
18550 kPa	1010.7 ± 0.8	–
18575 kPa	1010.82 ± 0.8	–
18600 kPa	1010.88 ± 0.8	–
18625 kPa	1010.99 ± 0.8	–
18650 kPa	1011.1 ± 0.8	–
18675 kPa	1011.15 ± 0.8	–
18700 kPa	1011.25 ± 0.8	–
18725 kPa	1011.35 ± 0.8	–
18750 kPa	1011.46 ± 0.8	–
18775 kPa	1011.49 ± 0.8	–
18800 kPa	1011.59 ± 0.8	–
18825 kPa	1011.7 ± 0.8	–
18850 kPa	1011.81 ± 0.8	–
18875 kPa	1011.88 ± 0.8	–
18900 kPa	1011.94 ± 0.8	–
18925 kPa	1012.05 ± 0.8	–
18950 kPa	1012.15 ± 0.8	–
18975 kPa	1012.26 ± 0.8	–
19000 kPa	1012.37 ± 0.8	–
19025 kPa	1012.45 ± 0.8	–
19050 kPa	1012.49 ± 0.8	–
19075 kPa	1012.6 ± 0.8	–
19100 kPa	1012.7 ± 0.8	–
19125 kPa	1012.77 ± 0.8	–
19150 kPa	1012.83 ± 0.8	–
19175 kPa	1012.93 ± 0.8	–
19200 kPa	1013.04 ± 0.8	–
19225 kPa	1013.15 ± 0.8	–
19250 kPa	1013.25 ± 0.8	–
19275 kPa	1013.27 ± 0.8	–
19300 kPa	1013.37 ± 0.8	–
19325 kPa	1013.48 ± 0.8	–
19350 kPa	1013.58 ± 0.8	–
19375 kPa	1013.61 ± 0.8	–
19400 kPa	1013.72 ± 0.8	–
19425 kPa	1013.82 ± 0.8	–
19450 kPa	1013.91 ± 0.8	–
19475 kPa	1013.95 ± 0.8	–
19500 kPa	1014.05 ± 0.8	–
19525 kPa	1014.15 ± 0.8	–
19550 kPa	1014.24 ± 0.8	–
19575 kPa	1014.34 ± 0.8	–
19600 kPa	1014.44 ± 0.8	–
19625 kPa	1014.47 ± 0.8	–
19650 kPa	1014.56 ± 0.8	–
19675 kPa	1014.66 ± 0.8	–
19700 kPa	1014.76 ± 0.8	–
19725 kPa	1014.86 ± 0.8	–
19750 kPa	1014.88 ± 0.8	–
19775 kPa	1014.98 ± 0.8	–
19800 kPa	1015.08 ± 0.8	–
19825 kPa	1015.19 ± 0.8	–
19850 kPa	1015.29 ± 0.8	–
19875 kPa	1015.31 ± 0.8	–
19900 kPa	1015.41 ± 0.8	–
19910 kPa	–	735.5 ± 1
19925 kPa	1015.5 ± 0.8	–
19950 kPa	1015.6 ± 0.8	–
19975 kPa	1015.7 ± 0.8	–
20000 kPa	1015.77 ± 0.8	–
24940 kPa	–	776.2 ± 1.1
29980 kPa	–	812.6 ± 1.1
35030 kPa	–	845.6 ± 1.1
